The subject of one test is HBV. Nature of the test: HBV-DNA antiviral assay using HepG2.117 cells (intracellular HBV DNA by qPCR). It counts as cell-based, genotype D HBV. The settings on record: HBV DNA inhibition, 3 days incubation, 2% DMSO. In outline: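 HepG2.117 cells (stable genotype D HBV, Tet-off) seeded without doxycycline, treated next day with 9-point 4-fold dilutions in 2% DMSO for 3 days at 37° C. Intracellular HBV DNA quantified by qPCR against a standard curve; viability by CellTiter-Glo ATP. EC50, EC90, CC50 from variable-slope dose-response fits versus DMSO control.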
As for `CNC(=O)c1ccc(-n2c(=O)c3c(n4ncc(CC5CC5)c24)CN(C(=O)c2ccc(Br)c(C(F)(F)F)c2)C(C)C3)cc1` (racemic) [Compound 21a, N-methyl-4-[rac-(11R)-12-[4-bromo-3-(trifluoromethyl)benzoyl]-5-(cyclopropylmethyl)-11-methyl-8-oxo-2,3,7,12-tetrazatricyclo[7.4.0.0^2,6]trideca-1(9),3,5-trien-7-yl]benzamide], the EC50 is under 0.05 µM.

The test is the same for the next values; noted with them: Hepatitis B virus, 72 h, HBV DNA inhibition, 3 days incubation, 2% DMSO.
Consider `CNC(=O)c1ccc(-n2c(=O)c3c(n4ncc(CC(C)C)c24)CN(C(=O)c2ccc(Cl)c(C(F)(F)F)c2)[C@H](C)C3)cc1` (stereo in doubt) [Compound 54a, N-methyl-4-[rac-(11R)-12-[4-chloro-3-(trifluoromethyl)benzoyl]-5-isobutyl-11-methyl-8-oxo-2,3,7,12-tetrazatricyclo[7,4.0.0^2,6]trideca-1(9),3,5-trien-7-yl]benzamide], for which the EC50 was under 0.05 µM.

On to `Cc1cnn(-c2ccc(-n3c(=O)c4c(n5ncc(Cc6ccccc6)c35)CN(C(=O)c3ccc(Br)c(C(F)(F)F)c3)[C@H](C)C4)cc2)n1` (stereo in doubt) [Compound 79a, rac-(11R)-5-benzyl-12-[4-bromo-3-(trifluoromethyl)benzoyl]-11-methyl-7-[4-(4-methyltriazol-2-yl)phenyl]-2,3,7,12-tetrazatricyclo[7.4.0.0^2,6]trideca-1(9),3,5-trien-8-one], for which the EC50 is under 0.05 µM.

As to `C[C@@H]1Cc2c(n3ncc(Cc4ccccc4)c3n(-c3ccc(-n4nnnc4C(F)(F)F)cc3)c2=O)CN1C(=O)c1ccc(Br)c(C(F)(F)F)c1` (stereo in doubt) [Compound 92a, rac-(11R)-5-benzyl-12-[4-bromo-3-(trifluoromethyl)benzoyl]-11-methyl-7-[4-[5-(trifluoromethyl)tetrazol-1-yl]phenyl]-2,3,7,12-tetrazatricyclo[7.4.0.0^2,6]trideca-1(9),3,5-trien-8-one], the EC50 was under 0.05 µM.

As to `C[C@@H]1Cc2c(n3ncc(Cc4ccccc4)c3n(-c3ccc(-c4nncn4C)cc3)c2=O)CN1C(=O)c1ccc(Br)c(C(F)(F)F)c1` (stereo in doubt) [Compound 39a, rac-(11R)-5-benzyl-12-[4-bromo-3-(trifluoromethyl)benzoyl]-11-methyl-7-[4-(4-methyl-1,2,4-triazol-3-yl)phenyl]-2,3,7,12-tetrazatricyclo[7.4.0.0^2,6]trideca-1(9),3,5-trien-8-one], the EC50 is under 0.05 µM.

The compound `Cc1nn[nH]c1-c1ccc(-n2c(=O)c3c(n4ncc(CC(C)C)c24)CN(C(=O)c2ccc(Br)c(C(F)(F)F)c2)[C@H](C)C3)cc1` (stereo in doubt) [Compound 62a, rac-(11R)-12-[4-bromo-3-(trifluoromethyl)benzoyl]-5-isobutyl-11-methyl-7-[4-(4-methyl-1H-triazol-5-yl)phenyl]-2,3,7,12-tetrazatricyclo[7.4.0.0^2,6]trideca-1(9),3,5-trien-8-one] gave an EC50 of under 0.05 µM.

As for `CC(C)Cc1cnn2c3c(c(=O)n(-c4ccc(-c5nc(=O)on5C)cc4)c12)C[C@@H](C)N(C(=O)c1ccc(Br)c(C(F)(F)F)c1)C3` (stereo in doubt) [Compound 94a, 2-methyl-3-[4-[rac-(11R)-12-[4-bromo-3-(trifluoromethyl)benzoyl]-5-isobutyl-11-methyl-8-oxo-2,3,7,12-tetrazatricyclo[7.4.0.0^2,6]trideca-1(9),3,5-trien-7-yl]phenyl]-1,2,4-oxadiazol-5-one], the EC50 was under 0.05 µM.

For `Cc1nn[nH]c1-c1cc(-n2c(=O)c3c(n4ncc(Cc5ccccc5)c24)CN(C(=O)c2ccc(Br)c(C(F)(F)F)c2)[C@H](C)C3)nn1C` (stereo in doubt) [Compound 83a, rac-(11R)-5-benzyl-12-[4-bromo-3-(trifluoromethyl)benzoyl]-11-methyl-7-[1-methyl-5-(4-methyl-1H-triazol-5-yl)pyrazol-3-yl]-2,3,7,12-tetrazatricyclo[7.4.0.0^2,6]trideca-1(9),3,5-trien-8-one], the EC50 was under 0.05 µM.

Source of the values: patent publication US11820773B2, “Tricyclic compounds” (ALIGOS THERAPEUTICS, INC., priority 2020, dated 2023).
